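All cell lines were grown in 96-well plates and treated with compound for 48 hours. TGI denotes the concentration required for complete inhibition of growth.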
What was measured:
Experiment in all cases: DTP human tumour cell line panel, 48 h
PC-3 prostate = tested on: PC-3 prostate
MOLT-4 leukemia = tested on: MOLT-4 leukemia
LOX IMVI melanoma = tested on: LOX IMVI melanoma
SR leukemia = tested on: SR leukemia
SW-620 colon = tested on: SW-620 colon
HCT-116 colon = tested on: HCT-116 colon
RXF 393 renal = tested on: RXF 393 renal
CCRF-CEM leukemia = tested on: CCRF-CEM leukemia
SF-295 CNS = tested on: SF-295 CNS
UACC-257 melanoma = tested on: UACC-257 melanoma
IGROV1 ovarian = tested on: IGROV1 ovarian
UACC-62 melanoma = tested on: UACC-62 melanoma
NCI/ADR-RES ovarian = tested on: NCI/ADR-RES ovarian
MCF7 breast = tested on: MCF7 breast
RPMI-8226 leukemia = tested on: RPMI-8226 leukemia
TK-10 renal = tested on: TK-10 renal
OVCAR-5 ovarian = tested on: OVCAR-5 ovarian
UO-31 renal = tested on: UO-31 renal
MDA-N = tested on: MDA-N
HCT-15 colon = tested on: HCT-15 colon
786-0 renal = tested on: 786-0 renal
EKVX NSCLC = tested on: EKVX NSCLC
HCC-2998 colon = tested on: HCC-2998 colon
SK-MEL-2 melanoma = tested on: SK-MEL-2 melanoma
A498 renal = tested on: A498 renal
SF-268 CNS = tested on: SF-268 CNS
SN12C renal = tested on: SN12C renal
SK-MEL-28 melanoma = tested on: SK-MEL-28 melanoma
OVCAR-8 ovarian = tested on: OVCAR-8 ovarian
M14 melanoma = tested on: M14 melanoma
T-47D breast = tested on: T-47D breast
NCI-H23 lung = tested on: NCI-H23 lung
NCI-H522 lung = tested on: NCI-H522 lung
DU-145 prostate = tested on: DU-145 prostate
HOP-62 NSCLC = tested on: HOP-62 NSCLC
BT-549 breast = tested on: BT-549 breast
U251 CNS = tested on: U251 CNS
NCI-H460 lung = tested on: NCI-H460 lung
NCI-H226 lung = tested on: NCI-H226 lung
CAKI-1 renal = tested on: CAKI-1 renal
SNB-19 CNS = tested on: SNB-19 CNS
SK-MEL-5 melanoma = tested on: SK-MEL-5 melanoma
MDA-MB-435 = tested on: MDA-MB-435
SNB-75 CNS = tested on: SNB-75 CNS
COLO 205 colon = tested on: COLO 205 colon
SF-539 CNS = tested on: SF-539 CNS
ACHN renal = tested on: ACHN renal
K-562 leukemia = tested on: K-562 leukemia
SK-OV-3 ovarian = tested on: SK-OV-3 ovarian
MALME-3M melanoma = tested on: MALME-3M melanoma
OVCAR-4 ovarian = tested on: OVCAR-4 ovarian
KM12 colon = tested on: KM12 colon
MDA-MB-231 breast = tested on: MDA-MB-231 breast
A549 NSCLC = tested on: A549 NSCLC
OVCAR-3 ovarian = tested on: OVCAR-3 ovarian
HL-60(TB) leukemia = tested on: HL-60(TB) leukemia
HOP-92 NSCLC = tested on: HOP-92 NSCLC
HS 578T breast = tested on: HS 578T breast

In the case of `COc1ccc2c(c1)CC[C@@H]1[C@@H]2CC[C@]2(C)C(=O)/C(=C/c3ccc(C#N)cc3)C[C@@H]12`, the TGI (PC-3 prostate) is reported as greater than 100 µM, the TGI (MOLT-4 leukemia) is reported as greater than 100 µM and the TGI (LOX IMVI melanoma) is reported as greater than 100 µM. It also gave a TGI (SR leukemia) greater than 100 µM, a TGI (SW-620 colon) greater than 100 µM and a TGI (HCT-116 colon) greater than 100 µM. For the same compound, the TGI (RXF 393 renal) was greater than 100 µM, the TGI (CCRF-CEM leukemia) was greater than 100 µM and the TGI (SF-295 CNS) was greater than 100 µM. It also gave a TGI (UACC-257 melanoma) greater than 100 µM, a TGI (IGROV1 ovarian) greater than 100 µM and a TGI (UACC-62 melanoma) greater than 100 µM. For the same compound, the TGI (NCI/ADR-RES ovarian) was greater than 100 µM, the TGI (MCF7 breast) was greater than 100 µM and the TGI (RPMI-8226 leukemia) was greater than 100 µM. The TGI (TK-10 renal) was greater than 100 µM, the TGI (OVCAR-5 ovarian) was greater than 100 µM and the TGI (UO-31 renal) was greater than 100 µM. For the same compound, the TGI (MDA-N) was greater than 100 µM, the TGI (HCT-15 colon) was greater than 100 µM and the TGI (786-0 renal) was greater than 100 µM. It also gave a TGI (EKVX NSCLC) greater than 100 µM, a TGI (HCC-2998 colon) greater than 100 µM and a TGI (SK-MEL-2 melanoma) greater than 100 µM. The TGI (A498 renal) was greater than 100 µM, the TGI (SF-268 CNS) was greater than 100 µM and the TGI (SN12C renal) was greater than 100 µM. It also gave a TGI (SK-MEL-28 melanoma) greater than 100 µM, a TGI (OVCAR-8 ovarian) greater than 100 µM and a TGI (M14 melanoma) greater than 100 µM. It also gave a TGI (T-47D breast) greater than 100 µM, a TGI (NCI-H23 lung) greater than 100 µM and a TGI (NCI-H522 lung) greater than 100 µM. For the same compound, the TGI (DU-145 prostate) was greater than 100 µM, the TGI (HOP-62 NSCLC) was greater than 100 µM and the TGI (BT-549 breast) was greater than 100 µM. The TGI (U251 CNS) was greater than 100 µM, the TGI (NCI-H460 lung) was greater than 100 µM and the TGI (NCI-H226 lung) was greater than 100 µM. The TGI (CAKI-1 renal) was greater than 100 µM, the TGI (SNB-19 CNS) was greater than 100 µM and the TGI (SK-MEL-5 melanoma) was greater than 100 µM. The TGI (MDA-MB-435) was greater than 100 µM, the TGI (SNB-75 CNS) was greater than 100 µM and the TGI (COLO 205 colon) was greater than 100 µM. For the same compound, the TGI (SF-539 CNS) was greater than 100 µM, the TGI (ACHN renal) was greater than 100 µM and the TGI (K-562 leukemia) was greater than 100 µM. It also gave a TGI (SK-OV-3 ovarian) greater than 100 µM, a TGI (MALME-3M melanoma) greater than 100 µM and a TGI (OVCAR-4 ovarian) greater than 100 µM. The TGI (KM12 colon) was greater than 100 µM, the TGI (MDA-MB-231 breast) was greater than 100 µM and the TGI (A549 NSCLC) was greater than 100 µM.

`COC(=O)CCCC(=O)NC1=C(Nc2ccc(OC)cc2)C(=O)c2ccccc2C1=O` gave a TGI (MOLT-4 leukemia) of 60.4 µM, a TGI (LOX IMVI melanoma) of 92.8 µM and a TGI (SR leukemia) greater than 100 µM. The TGI (OVCAR-3 ovarian) was 31.3 µM, the TGI (SW-620 colon) was greater than 100 µM and the TGI (HCT-116 colon) was 43.2 µM. For the same compound, the TGI (CCRF-CEM leukemia) was 58.2 µM, the TGI (SF-295 CNS) was 88.4 µM and the TGI (UACC-257 melanoma) was 36.1 µM. The TGI (IGROV1 ovarian) was 36.8 µM, the TGI (UACC-62 melanoma) was 25.3 µM and the TGI (NCI/ADR-RES ovarian) was 71.1 µM. The TGI (MCF7 breast) was 35.4 µM, the TGI (RPMI-8226 leukemia) was greater than 100 µM and the TGI (TK-10 renal) was greater than 100 µM. It also gave a TGI (OVCAR-5 ovarian) of 33.2 µM, a TGI (UO-31 renal) greater than 100 µM and a TGI (MDA-N) of 41.2 µM. It also gave a TGI (HCT-15 colon) of 89 µM, a TGI (786-0 renal) greater than 100 µM and a TGI (EKVX NSCLC) of 51.3 µM. The TGI (HCC-2998 colon) was greater than 100 µM, the TGI (SK-MEL-2 melanoma) was 37.8 µM and the TGI (A498 renal) was 84.4 µM. It also gave a TGI (SF-268 CNS) greater than 100 µM, a TGI (SN12C renal) of 74.2 µM and a TGI (SK-MEL-28 melanoma) of 44.9 µM. The TGI (HL-60(TB) leukemia) was 54.5 µM, the TGI (OVCAR-8 ovarian) was greater than 100 µM and the TGI (M14 melanoma) was 33.7 µM. For the same compound, the TGI (T-47D breast) was greater than 100 µM, the TGI (NCI-H23 lung) was 51.5 µM and the TGI (NCI-H522 lung) was greater than 100 µM. For the same compound, the TGI (DU-145 prostate) was 31.7 µM, the TGI (BT-549 breast) was 35.4 µM and the TGI (U251 CNS) was 80.9 µM. It also gave a TGI (NCI-H460 lung) of 36.6 µM, a TGI (CAKI-1 renal) greater than 100 µM and a TGI (SNB-19 CNS) greater than 100 µM. It also gave a TGI (MDA-MB-435) of 32.1 µM, a TGI (SNB-75 CNS) of 65.6 µM and a TGI (COLO 205 colon) greater than 100 µM. The TGI (SF-539 CNS) was 36.1 µM, the TGI (ACHN renal) was 91.5 µM and the TGI (HOP-92 NSCLC) was greater than 100 µM. The TGI (K-562 leukemia) was 70.1 µM, the TGI (SK-OV-3 ovarian) was 82.6 µM and the TGI (HS 578T breast) was 57.8 µM. It also gave a TGI (MALME-3M melanoma) of 13.5 µM, a TGI (OVCAR-4 ovarian) of 34.6 µM and a TGI (KM12 colon) greater than 100 µM. For the same compound, the TGI (MDA-MB-231 breast) was 82.9 µM and the TGI (A549 NSCLC) was 42.7 µM.

Reference: PubChem BioAssay (NCI)
